# In PubChem BioAssay (NCI):
# Values joined by “and” are separate entries in the source; they are usually repeats but may differ in a detail not shown here. Identical values can stand only once.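 Where inhibition never reached the appropriate level, the endpoint shown equals the highest concentration tested. Otherwise, values were interpolated linearly from a five-concentration, 48-hour dose response in 96-well plates. GI50: concentration for 50% inhibition of growth. Definition used: TGI = concentration required for complete inhibition of growth.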
# Tests used:
# Experiment in all cases: DTP human tumour cell line panel, 48 h
# A498 renal = system: A498 renal
# A549 NSCLC = system: A549 NSCLC
# HOP-92 NSCLC = system: HOP-92 NSCLC
# HS 578T breast = system: HS 578T breast
# NCI-H522 lung = system: NCI-H522 lung
# NCI/ADR-RES ovarian = system: NCI/ADR-RES ovarian
# PC-3 prostate = system: PC-3 prostate
# SK-MEL-28 melanoma = system: SK-MEL-28 melanoma
# T-47D breast = system: T-47D breast
# U251 CNS = system: U251 CNS
Compound,GI50 (A498 renal),TGI (A498 renal),GI50 (A549 NSCLC),TGI (A549 NSCLC),GI50 (HOP-92 NSCLC),TGI (HOP-92 NSCLC),TGI (HS 578T breast),GI50 (NCI-H522 lung),TGI (NCI-H522 lung),TGI (NCI/ADR-RES ovarian),TGI (PC-3 prostate),GI50 (SK-MEL-28 melanoma),TGI (SK-MEL-28 melanoma),TGI (T-47D breast),GI50 (U251 CNS),TGI (U251 CNS),GI50 (HS 578T breast),GI50 (NCI/ADR-RES ovarian),GI50 (PC-3 prostate),GI50 (T-47D breast)
C=C(C)[C@@H]1CC=C(CO)CC1,> 10000 nM,> 10 µM and 1170 µM,> 10000 nM,> 10 µM and 755 µM,> 10000 nM,> 10 µM and 830 µM,> 10 µM,> 10000 nM,> 10 µM and 1150 µM,> 10 µM,> 10 µM,> 10 µM,> 10 µM and 829 µM,> 10 µM,> 10000 nM,> 10 µM and 806 µM,,,,
NC(=O)[C@H]1CCN(c2ncnc(N)c2F)C[C@@H]1N1CCC[C@@H](Nc2cc(Cl)cc(C(F)(F)F)c2)C1=O,3250 nM,18.7 µM,15800 nM,> 100 µM,11200 nM,40.7 µM,> 100 µM,7110 nM,28.4 µM,> 100 µM,> 100 µM,18.5 µM,44.3 µM,76 µM,26300 nM,> 100 µM,15500 nM,29.7 µM,17700 nM,7700 nM
Cn1c(=O)c2[nH]c(/N=N/N3CCN(CCO)CC3)nc2n(C)c1=O,,> 100 µM,,> 100 µM,,> 100 µM,> 100 µM,,> 100 µM,> 100 µM,> 100 µM,,> 100 µM,> 100 µM,,> 100 µM,,,,
O=C(Nc1cccc(Cl)c1)Nc1ncc(CCNc2ncnc3ccsc23)s1,2510 nM and 1170 nM,17.9 µM and > 10 µM,748 nM and 493 nM,16.1 µM and > 10 µM,549 nM and 1550 nM,10.9 µM and > 10 µM,39.7 µM and > 10 µM,1760 nM and 1340 nM,9.89 µM and > 10 µM,11.8 µM and > 10 µM,13.8 µM and > 10 µM,3.85 µM and 2.42 µM,17.4 µM and > 10 µM,7.5 µM and 5.63 µM,4680 nM and 2160 nM,> 45.7 µM,2920 nM and 640 nM,1.34 µM and 1.6 µM,1050 nM and 1920 nM,2260 nM and 1270 nM
CC1=C(C(=O)OCc2ccccc2)C(c2ccc3c(c2)OCO3)n2c(nc3ccccc32)N1 (stereo not given),362 nM,> 100 µM,690 nM,> 100 µM,> 100000 nM,> 100 µM,> 48.8 µM,164 nM,> 57.6 µM,> 100 µM,> 100 µM,> 100 µM,> 100 µM,> 100 µM,464 nM,> 100 µM,299 nM,0.311 µM,458 nM,508 nM
CC[C@H](Nc1nc(N)nc(C)c1C#N)c1nc2cccc(CN(C)c3ncc(C(=O)NO)cn3)c2c(=O)n1-c1ccccc1,295 nM,1.13 µM,2060 nM,11.1 µM,204 nM,1.52 µM,> 11.1 µM,174 nM,4.27 µM,> 50 µM,8.14 µM,0.604 µM,3.16 µM,,663 nM,2.03 µM,474 nM,11.4 µM,1330 nM,242 nM
CC12CCC=CC1CCC1C2CCC2(C)C(c3ccc(=O)oc3)CCC12O (stereo not given),49.6 nM,0.457 µM,29.5 nM,0.111 µM,123 nM,0.639 µM,0.308 µM,39.8 nM,0.283 µM,0.247 µM,0.317 µM,0.256 µM,1.38 µM,1.05 µM,131 nM,0.419 µM,29.2 nM,0.0475 µM,53.4 nM,181 nM
C=C1C(=O)O[C@@H]2C1CC(=O)C(C)CC/C=C(\C)CCC[C@H](C)[C@H]2OC(C)=O (stereo not given in full),20700 nM,35.4 µM,19600 nM,38.7 µM,1640 nM,9.12 µM,36 µM,15900 nM,41.6 µM,40.9 µM,30.6 µM,11.8 µM,25.3 µM,58.5 µM,13900 nM,28.4 µM,15200 nM,15.3 µM,13700 nM,20400 nM
c1ccc2nc(Cn3c[n+](Cc4ccc5ccccc5n4)c4ccccc43)ccc2c1,2240 nM,10.2 µM,11600 nM,25.9 µM,930 nM,4.3 µM,18.8 µM,1560 nM,9.72 µM,> 100 µM,12.2 µM,2.38 µM,9.98 µM,9.65 µM,3080 nM,12.8 µM,3190 nM,> 100 µM,2480 nM,785 nM
N=C(N)c1nn(C2OC(CO)C(O)C2O)c2nc[nH]c(=O)c12 (stereo not given),1460 nM,4.74 µM,659 nM,13.4 µM,1290 nM,5.93 µM,2.27 µM,239 nM,0.69 µM,1.72 µM,6.74 µM,0.336 µM,1.55 µM,2.71 µM,2060 nM,> 37.1 µM,376 nM,0.321 µM,788 nM,255 nM
O=C1c2ccccc2C(=O)N1CC1(C(=O)O)NCCS1(=O)=O (stereo not given),,> 100 µM,,> 100 µM,,> 100 µM,> 100 µM,,> 100 µM,> 100 µM,> 100 µM,,> 100 µM,> 100 µM,,> 100 µM,,,,
Fc1ccc2[nH]cc(Cc3c[nH]c4ccc(F)cc34)c2c1,15000 nM,31.8 µM,17300 nM,50.9 µM,15400 nM,34.1 µM,44.5 µM,14300 nM,36.3 µM,90 µM,35 µM,25.3 µM,76.7 µM,96.9 µM,19700 nM,44.8 µM,18500 nM,17.2 µM,15000 nM,20000 nM
CC(C)(C(=O)NN)c1ccccc1,,> 100 µM,,> 100 µM,,> 100 µM,> 100 µM,,> 100 µM,> 100 µM,> 100 µM,,> 100 µM,> 100 µM,,> 100 µM,,,,
COc1cc2nc(Cl)nc(Nc3cccc(C(=O)/C=C/c4ccccc4)c3)c2cc1OC,> 25000 nM,> 66.5 µM,> 38700 nM,> 100 µM,2090 nM,8.52 µM,> 64.1 µM,3090 nM,52.6 µM,> 100 µM,27.8 µM,5.03 µM,> 100 µM,> 100 µM,2970 nM,> 38.1 µM,4190 nM,4.26 µM,3860 nM,> 30300 nM
